Melting point data for 6 compounds are collected here from patent US8178539B2, “Substituted 3,4,6,7-tetrahydro-5H-1,2a,4a,8-tetraazacyclopenta[cd]phenalenes and methods” (3M Innovative Properties Company, priority 2006, dated 2012).

Counter-ions that a name gives are not always drawn.

The melting point is the temperature of the solid-liquid transition. As for `CCOCc1nc2c(N)nc3c4c2n1CC(C)(C)N4CCC3` (as salt: hydrochloride) [Example 6, 2-(Ethoxymethyl)-4,4-dimethyl-3,4,6,7-tetrahydro-5H-1,2a,4a,8-tetraazacyclopenta[cd]phenalen-9-amine hydrochloride], the melting point fell in the range of 222 to 227 °C.

Compound `CCOCc1nc2c(N)nc3c4c2n1CCN4CCC3` [Example 1, 2-(Ethoxymethyl)-3,4,6,7-tetrahydro-5H-1,2a,4a,8-tetraazacyclopenta[cd]phenalen-9-amine] returned a melting point of 172 to 173 °C.

`COCCc1nc2c(N)nc3c4c2n1CCN4CCC3` [Example 2, 2-(2-Methoxyethyl)-3,4,6,7-tetrahydro-5H-1,2a,4a,8-tetraazacyclopenta[cd]phenalen-9-amine] gave a melting point of 171 to 172 °C.

Consider `CCCc1nc2c(N)nc3c4c2n1CCN4CCC3` [Example 3, 2-Propyl-3,4,6,7-tetrahydro-5H-1,2a,4a,8-tetraazacyclopenta[cd]phenalen-9-amine], for which the melting point lay in the range of 225 to 230 °C.

As to `CCOCc1nc2c(N)nc3c4c2n1[C@H](C)CN4CCC3` [Example 4, (3R)-2-(Ethoxymethyl)-3-methyl-3,4,6,7-tetrahydro-5H-1,2a,4a,8-tetraazacyclopenta[cd]phenalen-9-amine], the melting point fell in the range of 164.5 to 166.1 °C.

For the compound `CCOCc1nc2c(N)nc3c4c2n1[C@@H](C)CN4CCC3` [Example 5, (3S)-2-(Ethoxymethyl)-3-methyl-3,4,6,7-tetrahydro-5H-1,2a,4a,8-tetraazacyclopenta[cd]phenalen-9-amine], the melting point lay within 164.1 to 165.6 °C.
